In patent US12595259B2, “Aminopyridine compound” (ZHUHAI UNITED LABORATORIES CO., LTD., priority 2020, dated 2026):

Assay: Experiment of aldehyde-trapping ability in vitro
Details: for percentage content of the complex product (HPLC, 254 nm): nonanal 1.0 eq, compound 1.0 eq, 20 to 23° C.
Method: Objective: xerophthalmia is caused by inflammations inside the eye, and these inflammations would produce some aldehydes in vivo. If these aldehydes are not eliminated in time, the symptoms of inflammations would be accelerated and worsen the xerophthalmia. In this experiment, by simulating the in vivo environment, a relatively preferred compound was selected according to the complexing ability of the drug and the aldehyde in vivo.
Process: sulfobutyl-B-cyclodextrin (310 mg) was dissolved in phosphate buffer (1.25 mL) to prepare a solution.
Nonanal (5.0 mg, 32 μmol, 1.0 eq) and glyceryl trioleate (300 mg) were added into a reaction flask at room temperature. After the above prepared solution was added thereto, linoleic acid (300 mg) was then added thereto, and finally a dimethyl sulfoxide (0.15 mL) solution containing the compound of the present disclosure (32 μmol, 1.0 eq) was added thereto. The reaction solution was reacted at 20 to 23° C.
After stirring and reacting for 10 minutes, 100 minutes, 200 minutes, and 300 minutes, respectively, the reaction solution was allowed to stand for 2 minutes, layered and then sampled for high performance liquid detection.
Sampling method: 25 μL of the upper emulsion layer and 50 μL of the lower aqueous phase were sampled with a pipette, and diluted with 1 mL of methanol.
Nonanal has weak ultraviolet absorption at a wavelength of 254 nm, and has little influence on the content of complexation product as a whole. Therefore, the percentage content of the complexed compound at 254 nm in high performance liquid phase was compared to observe the ability of the compound to trap and complex aldehyde.
The HPLC analysis method is shown in Table 1 below, which is XBRIGE 2.5 μm, 3.0*100 mm 5-95CD_XBEH_12 min_0.8.lcm

CC(C)(O)c1ncc(-c2nc(C(C)(C)O)c(N)s2)cc1N [Compound 1]
Area under the curve AUC (complex product content against time, 10 to 300 minutes): 1874 min. conversion rate | Slope (linear fit of complex product content against time, 10 to 300 minutes): 0.0394 | percentage content of the complex product (HPLC, 254 nm) (reaction time 10 minutes): 1.095 | percentage content of the complex product (HPLC, 254 nm) (reaction time 100 minutes): 4.751 | percentage content of the complex product (HPLC, 254 nm) (reaction time 200 minutes): 8.764 | percentage content of the complex product (HPLC, 254 nm) (reaction time 300 minutes): 12.496
